Test results reported in patent publication EP0584290B1, “ENDOTHELIN ANTAGONISTS” (WARNER-LAMBERT COMPANY, priority 1991, dated 1992).
Square brackets hold non-standard residues; d marks the D form. Ends that are not written are not given here. Peptide text beside a SMILES is read from it. d1Nal = N[C@H](Cc1cccc2ccccc12)C(=O)O

How the values were obtained:
[1] = target: endothelin receptor, rat heart ventricle; experiment: [125I]-ET-1 binding assay in rat heart ventricle; conditions: [125I]-ET-1, rat heart ventricle (10 µg), 37°C, 2 hours
Procedure: (§1) The compounds of Formula I are valuable antagonists of endothelin. […] Thus, the compounds of Formula I were tested for their ability to inhibit [^125I]-ET-1([^125I]-Endothelin-1) binding in a receptor assay. The binding of the compounds of Formula I is determined by incubation (37°C, 2 hours) of a compound of Formula I with [^125I]-ET-1 and the tissue (rat heart ventricle (10 µg)) in 50 mM Tris(hydroxymethyl)aminomethane hydrochloride (Tris-HCl) (pH 7.4), 5 mM ethylenediamine tetraacetic acid (EDTA), 2 mM ethylene glycol bis(β-aminoethyl ether)N,N,N',N'-tetraacetic acid (EGTA), 100 µM phenylmethylsulfonyl fluoride (PMSF), and 100 µM bacitracin containing protease inhibitors (total volume of 0.5 mL). IC50 values are calculated by weighing nonlinear regression curve-fitting to the mass-action (Langmuir) equation. The functional activity of compounds of Formula I is determined in Rat-1 cells by measuring intracellular levels of second messengers. Thus, cells were prelabeled with [^3H]-inositol and endothelin-stimulated accumulation of total [^3H]-inositol phosphates in the presence of Li^+ is monitored using anion exchange chromatography as described by Muldoon, L. L., et al, Journal of Biological Chemistry, Volume 264, pages 8529-8536 (1989) and Dudley, D. T., et al, Molecular Pharmacology, Volume 38, pages 370-377 (1990). Antagonist activity is assessed as the ability of added compounds to reduce endothelin-stimulated inositol phosphate accumulation. Antagonist activity was also measured by the ability of added compounds to reduce endothelin-stimulated arachidonic acid release in cultured vascular smooth muscle cells as (AAR) described in Reynolds, E., Mok, K., Faseb J., 1991, 5, A1066. The data in the table show the endothelin antagonist activity of representative compounds of Formula I. TABLE 1

[2] = target: T1, Rat-1 cells (Rattus norvegicus, UniProt P26684); experiment: Endothelin-stimulated inositol phosphate (IP) accumulation in Rat-1 cells; assay type: cell-based
T1 sequence (P26684 21-426): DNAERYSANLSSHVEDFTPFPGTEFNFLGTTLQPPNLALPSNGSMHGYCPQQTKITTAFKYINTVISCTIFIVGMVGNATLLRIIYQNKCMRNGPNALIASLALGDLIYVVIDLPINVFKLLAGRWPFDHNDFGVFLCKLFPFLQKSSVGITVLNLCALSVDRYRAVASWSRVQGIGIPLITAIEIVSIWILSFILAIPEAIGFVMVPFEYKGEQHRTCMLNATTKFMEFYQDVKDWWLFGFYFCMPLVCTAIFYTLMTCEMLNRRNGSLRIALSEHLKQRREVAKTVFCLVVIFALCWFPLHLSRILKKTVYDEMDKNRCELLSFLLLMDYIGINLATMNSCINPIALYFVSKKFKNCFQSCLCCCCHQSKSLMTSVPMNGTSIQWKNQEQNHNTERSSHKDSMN
Procedure: as §1, with “Antagonist activity is assessed as the ability of added compounds to reduce endothelin-stimulated inositol phosphate accumulation. Antagonist activity was also measured by the ability of added compounds to reduce endothelin-stimulated arachidonic acid release in cultured vascular smooth muscle cells as (AAR) described in Reynolds, E., Mok, K., Faseb J., 1991, 5, A1066. The data in the table show the endothelin antagonist activity of representative compounds of Formula I. TABLE 1” left out

[3] = system: ET receptor; conditions: relative to ET-1; cited from earlier work

Row | Molecule | IC50 [1] [µM] | further results
1 | CC[C@H](C)[C@H](NC(=O)[C@H](CC(=O)O)NC(=O)[C@H](CC(C)C)NC(=O)[C@@H](Cc1ccccc1)NC(C)=O)C(=O)N[C@H](C(=O)N[C@@H](Cc1c[nH]c2ccccc12)C(=O)O)[C@@H](C)CC [Example 1, Ac-D-Phe-Leu-Asp-Ile-Ile-Trp] (Ac-[dF]LDIIW-OH) | 0.72 | 
2 | CC[C@@H](C)[C@@H](NC(=O)[C@@H](NC(=O)[C@@H](CC(=O)O)NC(=O)[C@H](CC(C)C)NC(=O)[C@@H](Cc1c[nH]cn1)NC(C)=O)[C@@H](C)CC)C(=O)N[C@@H](Cc1c[nH]c2ccccc12)C(=O)O [Example 7, Ac-D-His-Leu-D-Asp-Ile-D-Ile-Trp] (Ac-[dH]L[dD]I[dI]W-OH) | 6.03 | 
3 | CC[C@H](C)[C@H](NC(=O)[C@H](CC(=O)O)NC(=O)[C@H](CC(C)C)NC(=O)[C@H](N)Cc1cccc2ccccc12)C(=O)N[C@H](C(=O)N[C@@H](Cc1c[nH]c2ccccc12)C(=O)O)[C@@H](C)CC [Example 4, D-1-Nal-Leu-Asp-Ile-Ile-Trp] (H-[d1Nal]LDIIW-OH) |  | inhibition at 50 µM [2]: 53%
4 | CC[C@H](C)[C@H](NC(=O)[C@H](CC(=O)O)NC(=O)[C@@H](Cc1ccccc1)NC(C)=O)C(=O)N[C@H](C(=O)N[C@@H](Cc1c[nH]c2ccccc12)C(=O)O)[C@@H](C)CC [Example 11, Ac-D-Phe-Asp-Ile-Ile-Trp] (Ac-[dF]DIIW-OH) | 2.15 | 
5 | CC[C@H](C)[C@H](NC(=O)[C@H](CC(=O)O)NC(=O)[C@H](CC(C)C)NC(=O)[C@@H](Cc1ccccc1)NC(C)=O)C(=O)N[C@@H](Cc1c[nH]c2ccccc12)C(=O)O [Example 6, Ac-D-Phe-Leu-Asp-Ile-Trp] (Ac-[dF]LDIW-OH) | 24.5 | 
6 | ET[1-20]: ET-1 analogue without the C-terminal amino acid (Trp-21) (CSCSSLMDKECVYFCHLDII; not fully specified (bridges); ends and bridges not checked; UniProt P05305 53-72, looked up, fragment) |  | less functional activity [3]: approximately 1000 fold
